Data set [1] deals with Melanin-concentrating hormone receptor 1 (Homo sapiens, UniProt Q99705). The data set is described as follows: Antagonist activity against MCH1R expressed in CHO cells assessed as inhibition of MCH-induced EC80 […] response by luciferase reporter gene assay. In kind it is functional, cell-based. In general terms: A reporter such as luciferase makes a cellular process visible.

The nature of data set [2]: Bioavailability in rat at 3 mg/kg, iv and 5 to 10 mg/kg, po. The format is ADME, organism-based. The note with it: in vivo.
Data set [3] can be described thus: Half life in mouse. The format is ADME, organism-based. The note with it: in vivo.
Data set [4] is described as follows: Ratio of drug level in brain against plasma in mouse. The format is ADME, organism-based. Conditions: brain and plasma, read-out: BPR.
Data set [5] is described as follows: Bioavailability in mouse at 1.6 mg/kg, iv and 5.2 mg/kg, po. In kind it is ADME, organism-based. The note with it: in vivo.
In data set [6] the test system is Mus musculus. The data set can be described thus: Decrease in body weight of AKR/J DIO mouse relative to control after 15 days at 3 mg/kg, po. In kind it is functional. Set-up: scale not given: the % may be the effect or the level left.
In data set [7] the test system is Mus musculus. The data set is described as follows: Decrease in body weight of AKR/J DIO mouse relative to control after 15 days at 0.3 mg/kg, po. Also on record: scale not given: the % may be the effect or the level left. The format is functional.
The subject of data set [8] is Mus musculus. The data set can be described thus: Decrease in body weight of AKR/J DIO mouse relative to control after 15 days at 10 mg/kg, po. The format is functional. Also on record: scale not given: the % may be the effect or the level left.
In data set [9] the test system is Mus musculus. The data set can be described thus: Decrease in body weight of AKR/J DIO mouse relative to control after 15 days at 1 mg/kg, po. Set-up: scale not given: the % may be the effect or the level left. In kind it is functional.

Broadly, the IC50 is the concentration that inhibits the measured activity by half. As usually defined, the bioavailability is dose-corrected exposure relative to a reference, in per cent. By half-life is commonly meant how long it takes for the measured level to halve.

Sequence of Melanin-concentrating hormone receptor 1 (Q99705 whole entry): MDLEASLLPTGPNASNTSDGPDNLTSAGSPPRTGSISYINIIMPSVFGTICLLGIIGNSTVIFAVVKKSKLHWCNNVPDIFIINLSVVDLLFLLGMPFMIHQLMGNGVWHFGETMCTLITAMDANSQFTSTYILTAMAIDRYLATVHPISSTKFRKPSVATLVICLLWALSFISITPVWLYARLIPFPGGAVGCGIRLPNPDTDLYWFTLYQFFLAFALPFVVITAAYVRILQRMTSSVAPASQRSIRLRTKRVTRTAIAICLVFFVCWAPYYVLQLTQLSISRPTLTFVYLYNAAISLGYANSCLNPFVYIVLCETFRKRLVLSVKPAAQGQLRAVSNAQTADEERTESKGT

On to `COc1ccc(-n2c(C)nc3cc(-n4cnc5cc(-c6ccc(Cl)cc6)sc5c4=O)ccc32)cc1`, for which the IC50 in data set [1] is 5.01 nM. In data set [2], this molecule returned a bioavailability of 3%.
Taken in the same sequence, the figures for `COc1ccc(-n2c(N(C)C)nc3cc(-n4cnc5cc(-c6ccc(Cl)cc6)sc5c4=O)ccc32)cc1` were 10 nM and 16%.
`O=c1c2sc(-c3ccc(Cl)cc3)cc2ncn1-c1ccc2[nH]c(N3CCOCC3)nc2c1`: the IC50 in data set [1] was 15.8 nM.
In the case of `CCCn1c(N(C)C)nc2cc(-n3cnc4cc(-c5ccc(Cl)cc5)sc4c3=O)ccc21`, the half-inhibitory concentration (IC50) in data set [1] is 5.01 nM. The molecule also came in with a bioavailability in data set [2] of 30%.
For the molecule `COCCNc1nc2cc(-n3cnc4cc(-c5ccc(Cl)cc5)sc4c3=O)ccc2[nH]1`, the IC50 in data set [1] is 31.6 nM.
Turning to `Cc1nc2cc(-n3cnc4cc(-c5ccc(Cl)cc5)sc4c3=O)ccc2n1-c1ccc(OC(C)C)cc1`, the IC50 in data set [1] is 7.94 nM.
As for `CN(CCN1CCCC1)c1nc2cc(-n3cnc4cc(-c5ccc(Cl)cc5)sc4c3=O)ccc2[nH]1`, the IC50 in data set [1] was 5.01 nM. In data set [2], the bioavailability stood at 0%.
Taken in the same sequence, the figures for `O=c1c2sc(-c3ccc(Cl)cc3)cc2ncn1-c1ccc2[nH]c(NCCN3CCCC3)nc2c1` were 6.31 nM and 0%.
Taken in the same sequence, the figures for `CNc1nc2cc(-n3cnc4cc(-c5ccc(Cl)cc5)sc4c3=O)ccc2[nH]1` were 3.98 nM and 0%.
For the molecule `Nc1nc2cc(-n3cnc4cc(-c5ccc(Cl)cc5)sc4c3=O)ccc2[nH]1`, in data set [1], the IC50 was 31.6 nM.
Consider `CN(C)c1nc2cc(-n3cnc4cc(-c5ccc(Cl)cc5)sc4c3=O)ccc2n1CCO`, for which, in data set [1], the IC50 is 10 nM. Further, the bioavailability in [2] worked out at 59%.
For the molecule `Cc1nc2cc(-n3cnc4cc(-c5ccc(Cl)cc5)sc4c3=O)ccc2n1C1CCCCC1`, the IC50 in data set [1] is 6.31 nM. This molecule registered a bioavailability in data set [2] of 0%.
Taken in the same sequence, the figures for `Cc1nc2cc(-n3cnc4cc(-c5ccc(Cl)cc5)sc4c3=O)ccc2n1CCN1CCOCC1` were 6.31 nM and 24%.
For `COc1ccc(Cn2c(N(C)C)nc3cc(-n4cnc5cc(-c6ccc(Cl)cc6)sc5c4=O)ccc32)cc1`, the IC50 in data set [1] was 12.6 nM.
Same read-out and setting: the same measure for `CN(C)c1nc2cc(-n3cnc4cc(-c5ccc(Cl)cc5)sc4c3=O)ccc2n1C`: 6.31 nM; for `CC(C)Nc1nc2cc(-n3cnc4cc(-c5ccc(Cl)cc5)sc4c3=O)ccc2[nH]1`: 7.94 nM.
Same read-out and setting: the same measure for `Cc1ccc(-n2c(C)nc3cc(-n4cnc5cc(-c6ccc(Cl)cc6)sc5c4=O)ccc32)cc1`: 20 nM.
`CN(C)c1nc2ccc(-n3cnc4cc(-c5ccc(Cl)cc5)sc4c3=O)cc2n1C` gave a half-life in [3] of 6 h. Further, the IC50 in [1] is 1.58 nM. Moreover, the Kp in data set [4] stood at 2.6. Besides, the bioavailability in data set [5] is over 90%; in data set [2], at least 100%. The Activity with Mus musculus [6] is given as -5.1%; in the data set with Mus musculus [7], -1.6%; with Mus musculus [8] it was -10%; in the data set on Mus musculus [9] it was -2.1%.
Take `CCOc1ccc(-n2c(C)nc3cc(-n4cnc5cc(-c6ccc(Cl)cc6)sc5c4=O)ccc32)cc1`: in data set [1], the 50% inhibitory concentration (IC50) was 3.16 nM.
Same read-out and setting: the same measure for `Cc1nc2cc(-n3cnc4cc(-c5ccc(Cl)cc5)sc4c3=O)ccc2n1-c1ccccc1`: 31.6 nM.
In the case of `CN(C)c1nc2ccc(-n3cnc4cc(-c5ccc(Cl)cc5)sc4c3=O)cc2n1CCO`, the IC50 in data set [1] was 12.6 nM. Further, in [2], the bioavailability came out at 55%.
Taken in the same sequence, the figures for `CN(C)c1nc2cc(-n3cnc4cc(-c5ccc(Cl)cc5)sc4c3=O)ccc2[nH]1` were 2.51 nM and 4%.
On to `O=c1c2sc(-c3ccc(Cl)cc3)cc2ncn1-c1ccc2[nH]c(NC3CC3)nc2c1`, for which the IC50 in [1] was 15.8 nM.
Take `CCCn1c(N(C)C)nc2ccc(-n3cnc4cc(-c5ccc(Cl)cc5)sc4c3=O)cc21`: in data set [1], the IC50 was 5.01 nM. The molecule further returned a bioavailability in [2] of 21%.
For the molecule `COc1ccc(Cn2c(N(C)C)nc3ccc(-n4cnc5cc(-c6ccc(Cl)cc6)sc5c4=O)cc32)cc1`, the IC50 in data set [1] is 2510 nM.
As for `Cc1nc2cc(-n3cnc4cc(-c5ccc(Cl)cc5)sc4c3=O)ccc2n1CCN1CCCC1`, in data set [1], the IC50 is 2 nM. This molecule also gave a bioavailability in [2] of 31%.
In the same order, the values of `Cc1nc2cc(-n3cnc4cc(-c5ccc(Cl)cc5)sc4c3=O)ccc2n1CCCO` are 1.58 nM and at least 100%.
Turning to `Cc1nc2cc(-n3cnc4cc(-c5ccc(Cl)cc5)sc4c3=O)ccc2n1-c1ccc(N(C)C)cc1`, the IC50 in data set [1] is 5.01 nM.
For `O=c1c2sc(-c3ccc(Cl)cc3)cc2ncn1-c1ccc2[nH]c(N3CCCC3)nc2c1`, the IC50 in [1] was 3.16 nM. This molecule also had a bioavailability in data set [2] of 76%.
On to `Cc1nc2cc(-n3cnc4cc(-c5ccc(Cl)cc5)sc4c3=O)ccc2[nH]1`, for which the IC50 in [1] was 25.1 nM.
As to `O=c1c2sc(-c3ccc(Cl)cc3)cc2ncn1-c1ccc2[nH]c(N3CCCCC3)nc2c1`, the IC50 in data set [1] is 5.01 nM. For the same molecule, in data set [2], the bioavailability stood at 31%.
Take `COCCCn1c(C)nc2cc(-n3cnc4cc(-c5ccc(Cl)cc5)sc4c3=O)ccc21`: in data set [1], the IC50 is 5.01 nM. In addition, in data set [2], the bioavailability was 40%.
With `CN1CCN(c2nc3cc(-n4cnc5cc(-c6ccc(Cl)cc6)sc5c4=O)ccc3[nH]2)CC1`, the IC50 in data set [1] was 100 nM.
Consider `Cn1c(N2CCCC2)nc2ccc(-n3cnc4cc(-c5ccc(Cl)cc5)sc4c3=O)cc21`, for which the IC50 in [1] is 6.31 nM. In data set [2], this molecule returned a bioavailability of at least 100%.
As for `Cn1c(N2CCCC2)nc2cc(-n3cnc4cc(-c5ccc(Cl)cc5)sc4c3=O)ccc21`, in data set [1], the IC50 was 25.1 nM.

(Values after ChEMBL document CHEMBL1146879, “Novel benzimidazole-based MCH R1 antagonists” (Bioorg Med Chem Lett, 2006).)
